# In PubChem BioAssay (NCI):
#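 Dose response: 5 concentrations. Exposure: 48 h. Format: 96-well plates. Endpoint: linear interpolation; highest concentration if not reached. TGI: total growth inhibition.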
# Assays:
# Assay in all cases: DTP human tumour cell line panel, 48 h
# ACHN renal = system: ACHN renal
# MDA-MB-435 = system: MDA-MB-435
# UACC-257 melanoma = system: UACC-257 melanoma
# IGROV1 ovarian = system: IGROV1 ovarian
# M14 melanoma = system: M14 melanoma
# SN12C renal = system: SN12C renal
# NCI-H522 lung = system: NCI-H522 lung
# TK-10 renal = system: TK-10 renal
# T-47D breast = system: T-47D breast
Compound,TGI (ACHN renal),TGI (MDA-MB-435),TGI (UACC-257 melanoma),TGI (IGROV1 ovarian),TGI (M14 melanoma),TGI (SN12C renal),TGI (NCI-H522 lung),TGI (TK-10 renal),TGI (T-47D breast)
CCCCCCCCCCCCCCCCOCC(CC(F)(F)P(=O)(O)O)OC(C)=O (stereo not drawn),> 50 µM,> 50 µM,> 50 µM,> 50 µM,> 50 µM,> 50 µM,> 50 µM,> 50 µM,
CCCCc1ccc2[n+](c1)C(C(=O)OCC)=PC2 (stereo not drawn),> 100 µM,> 100 µM,> 100 µM,> 100 µM,> 100 µM,> 100 µM,> 100 µM,> 100 µM,
CSc1c(C(C)=O)c(O)n(-c2ccc(Cl)cc2)c(=O)c1C#N,,> 100 µM,> 100 µM,,> 100 µM,> 100 µM,21.9 µM,> 100 µM,> 100 µM
C=CCc1c(O)c2ccccc2[nH]c1=O,> 100 µM,> 100 µM,> 100 µM,> 100 µM,,> 100 µM,> 100 µM,> 100 µM,
CN(C)c1ccc(/C=C(\NC(=O)c2ccccc2)C(=O)Nc2ccccc2C(=O)NN2C(=O)CSC2c2ccc(N(C)C)cc2)cc1 (stereo not drawn),> 100 µM,> 100 µM,32.2 µM,> 100 µM,> 100 µM,> 100 µM,> 100 µM,,> 100 µM
CC(C)(C)OC(=O)NC(Cc1ccccc1)C(=O)N[C@H]1c2ccsc2/C(=N/O)[C@H]1O (stereo partly drawn),,> 100 µM,> 100 µM,> 100 µM,> 100 µM,> 100 µM,,> 100 µM,> 100 µM
O=C1/C(=C/c2ccccc2S)N=C(c2ccccc2)N1c1ccc2c(c1)Sc1cc(N3C(=O)/C(=C/c4ccccc4S)N=C3c3ccccc3)ccc1N2,33.5 µM,48.9 µM,42.3 µM,29.1 µM,35 µM,34.3 µM,,31.3 µM,51.3 µM
N#Cc1c(=O)c2cccnc2n2c1[nH]c1ccccc12,> 100 µM,> 100 µM,> 100 µM,> 100 µM,> 100 µM,> 100 µM,,> 100 µM,> 100 µM
CC(=O)N(C(C)=O)n1c(Cc2ccc(Cl)cc2)nn(C(C)=O)c1=O,> 100 µM,> 100 µM,,> 100 µM,> 100 µM,> 100 µM,> 100 µM,> 100 µM,> 100 µM
Cc1ccc(S(=O)(=O)Nn2c(-c3ccccc3)c(C#N)c(-c3ccc([N+](=O)[O-])cc3)c(C#N)c2=O)cc1,> 100 µM,> 100 µM,> 100 µM,> 100 µM,> 100 µM,> 100 µM,> 100 µM,> 100 µM,
O=c1c(Cc2ccc(Cl)cc2)nnc2sc(-c3ccc([N+](=O)[O-])cc3)nn12,87.3 µM,58.5 µM,39.5 µM,> 100 µM,39.2 µM,> 100 µM,,68.4 µM,
O=C(C[C@@H]1NCCC[C@H]1O)Cn1cnc2cc(Br)c(Cl)cc2c1=O,1.21 µM,0.076 µM,,0.158 µM,0.0821 µM,0.0726 µM,0.169 µM,,0.082 µM
Cc1ccc2ccccc2c1CC1S(=O)(=O)OCCOS1(=O)=O,28.8 µM,22 µM,41.2 µM,,28.7 µM,23.7 µM,,31.1 µM,
COc1cc(C2SCC(=O)N2NC(=O)c2ccc(NC(C)=O)cc2)cc(OC)c1OC (stereo not drawn),> 100 µM,> 100 µM,> 100 µM,> 100 µM,> 100 µM,> 100 µM,,> 100 µM,> 100 µM
C#CC(C)(C)Oc1cc(OC)c2c(=O)c3ccccc3n(C)c2c1,64.6 µM,26.9 µM,26.4 µM,45 µM,,49.9 µM,,> 100 µM,27.9 µM
Cc1cs/c(=N\C(P(=O)(O)O)P(=O)(O)O)n1C,> 100 µM,> 100 µM,> 100 µM,> 100 µM,> 100 µM,,> 100 µM,> 100 µM,
CC1(C)CC(=O)C(/C=N/c2nc(-c3ccc(Br)cc3)cs2)=C(O)C1,> 100 µM,76.5 µM,38.3 µM,> 100 µM,48.4 µM,> 100 µM,,40.2 µM,> 100 µM
O=C(c1ccccc1F)c1c(NCc2ccccc2)c(=O)c1=O,> 100 µM,> 100 µM,> 100 µM,> 100 µM,> 100 µM,> 100 µM,> 100 µM,> 100 µM,
COc1ccccc1C(=O)c1c(N2CCCCC2)c(=O)c1=O,> 100 µM,> 100 µM,> 100 µM,> 100 µM,> 100 µM,> 100 µM,> 100 µM,> 100 µM,
[N-]=[N+]=NC1(c2ccccc2)C(=O)Nc2ccccc2C1=O (stereo not drawn),> 100 µM,44.1 µM,> 100 µM,> 100 µM,74.6 µM,> 100 µM,,> 100 µM,> 100 µM
C=C(CCOC)CCC1CCCCC(=C)C1=O (stereo not drawn),> 100 µM,> 100 µM,,> 100 µM,> 100 µM,> 100 µM,> 100 µM,,> 100 µM
